# Values joined by “and” are separate entries in the source; they are usually repeats but may differ in a detail not shown here. Equal values may be shown once. Read-outs that look alike come from different tables or passages of the source.
# Columns and labels:
# [1] = tested on: increased vascular permeability induced by acetic acid; assay: Inhibitory activity on increased vascular permeability induced by acetic acid (Mouse Whittle method, method C); format: in vivo, ddy male mice; details: dose 20 mg/kg orally, amount of leaked dye
# Protocol: Using ddy male mice, each test group consisted of 4 or 5 mice. A test compound was mixed with Tween 80 [polyoxyethylenesorbitan monooleate (manufactured by Nacalai Tesque K.K.)], and distilled water was added thereto to obtain a 2% Tween 80 suspension, or it was dissolved in the form of a salt in water to obtain an aqueous solution. A test compound was orally administered, and upon expiration of one hour from the administration, 0.7% acetic acid was intraperitonially injected to each mouse in an amount of 0.1 ml/10 g, and at the same time, 2% brilliant blue was intravenously injected into the tail vein in an amount of 0.1 ml/20 g. Thirty minutes after the injection of brilliant blue, the cervical vertebrae were dislocated under anesthesia by chloroform, and the abdorminal cavity was washed with 5 ml of a physiological saline. The washing solution was subjected to centrifugal separation at 3,000 rpm for 10 minutes, and the amount of the dye in the supernatant was measured at 600 nm absorbance by Microplate ELISA Reader (Model 2550EIA Reader, manufactured by Bio-Rad Laboratories). The inhibition rate of the amount of leaked dye in the group in which a test compound was administered relative to the control group was obtained by the following formula. Inhibition rate (%) = (l -(C)/(D)) x 100 [formula] • C: Amount of leaked dye in the group to which a test compound was administered. • D: Amount of leaked dye in the control group.
# carrageenin edema = assay: Inhibitory activity on carrageenin edema; format: in vivo, Wistar male rats; details: rat, paw swelling volume three hours after carrageenin; for Inhibition rate (%): dose 50 mg/kg orally
# In short: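 Male Wistar rats (about 100 g, 5 per group) dosed orally at 200, 100, 50 or 25 mg/kg as 2% Tween 80 suspension or aqueous salt solution, 1 h before subplantar injection of 0.1 ml 1% λ-carrageenin. Paw swelling measured at 3 h; % inhibition versus control group mean swelling.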
# [2] = tested on: increased vascular permeability induced by acetic acid; assay: Inhibitory activity on increased vascular permeability induced by acetic acid (Rat Whittle method, method D); format: in vivo, SD (Crj: CD) male rats; details: amount of leaked dye
# Protocol: Using SD (Crj: CD) male rats, each test group consisted of from 3 to 5 rats. A test compound was mixed with Tween 80 [polyoxyethylenesorbitan monooleate (manufactured by Nacalai Tesque K.K.)], and distilled water was added thereto to obtain a 2% Tween 80 suspension, or it was dissolved in the form of a salt in water to obtain an aqueous solution. A test compound was orally administered, and one hour later, 0.7% acetic acid was intraperitonially injected to each rat in an amount of 0.05 ml/10 g, and at the same time, 2% brilliant blue was intravenously injected into the tail vein in an amount of 0.05 ml/20 g. Thirty minutes after the injection of brilliant blue, the cervical vertebrae were dislocated under anesthesia by chloroform, and the abdorminal cavity was washed with 10 ml of a physiological saline. The washing solution was subjected to centrifugal separation at 3,000 rpm for 10 minutes, and the amount of the dye in the supernatant was measured at 600 nm absorbance by Microplate ELISA Reader (Model 2550EIA Reader, manufactured by Bio-Rad Laboratories). The inhibition rate of the amount of leaked dye in the group to which a test compound was administered relative to the control group was obtained from the following formula, and the results are shown in Table 9. Inhibition rate (%) = (l -(C)/(D)) x 100 [formula] • C: Amount of leaked dye in the group to which a test compound was administered. • D: Amount of leaked dye in the control group.
# [3] = Acute toxicity, intravenous injection (LD50); format: in vivo; details: mouse, in vivo, iv, ddy male mice, sodium salt, mortality over one week
# Protocol: Administration route: Intravenous injection
# Using ddy male mice (body weight: 25 - 30 g), each test group consisted of 5 mice. A test compound was dissolved in the form of a sodium salt in a physiological saline or in a 5% glucose aqueous solution, and intravenously injected in an amount of 0.1 ml/10 g body weight. After the injection, the mortality rate was obtained over one week, and the median lethal dose LD50 (mg/kg) was determined.
# [4] = molecular target: T1, Porcine pancreatic phospholipase A2 (Sus scrofa, UniProt P00592); assay: Phospholipase A2 inhibitory activity, method A (egg yolk lecithin substrate); format: biochemical; details: 1,000 ppm, 37°C for 30 minutes, read-out: % inhibition of PLA2 (1,000 ppm)
# T1 construct: purchased Boehringer Mannheim·Yamanouchi K.K. 161454·122416
# T1 sequence (P00592 23-146): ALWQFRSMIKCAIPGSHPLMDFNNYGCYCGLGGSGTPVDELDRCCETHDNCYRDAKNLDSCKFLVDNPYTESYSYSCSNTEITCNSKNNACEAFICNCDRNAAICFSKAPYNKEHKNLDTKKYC
# In short: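 Egg yolk lecithin dispersed with glycerine, Triton X-100 and CaCl2 in 50 mM Tris-HCl pH7.5 was hydrolysed by enzyme (20 ng/ml solution) with compound, 37°C, 30 min. Released free fatty acid measured by ACS-ACOD method at 540 nm; apparent enzyme level read from a standard curve to give percent inhibition.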
# [5] = tested on: experimental acute pancreatitis model; assay: Effects against acute pancreatitis (Test Example 7, closed duodenal loop method, gross pathological examination); format: in vivo, Crj-CD male rats; design: key: -: No significant lesions; ±: Minimal; +: Light; ++: Moderate; +++: Marked; details: 50 mg per kg continuous intravenous injection, examination 6 hours after ventrotomy, individual rats
# Protocol: (§1) Using Crj-CD male rats (for Compound No. 19, rats having a body weight of from 371 to 484 g were used, and for Compound No. 10, rats having a body weight of from 444 to 574 g were used), each test group consisted of 3 rats. An experimental acute pancreatitis model was prepared by a closed duodenal loop method under anesthesia with halothane (manufactured by Hoechst Japan) and nitrous oxide (manufactured by Sumitomo Seika K.K.) applied by means of a general inhalation anesthesia machine (Model EM-2 and halothane evaporator F-Model). Then, Compound No. 19 or Compound No. 10 was continuously intravenously injected into the tail vein in an amount of 50 mg per kg or 40 mg per kg, respectively, at a rate of 0.05 ml per minute by means of a pump (Technicon AA II Proportioning Pump III, manufactured by Technicon Instruments Corporation). No injection was made to a control group. Gross pathological examination was conducted upon expiration of 6 hours after the ventrotomy in the case of the test group to which Compound No. 19 was administered, or upon expiration of 3 hours after the ventrotomy in the case of the test group to which Compound No. 10 was administered. As a result, as shown in the following Table 12, the groups to which the compounds of the present invention were administered, show distinct usefulness for treating acute pancreatitis.
# [6] = molecular target: T1, Porcine pancreatic phospholipase A2; assay: Phospholipase A2 inhibitory activity, method B (L-α-dipalmitoylphosphatidylcholine substrate); format: biochemical; details: 1,000 ppm, 37°C for 30 minutes, read-out: % inhibition of PLA2 (1,000 ppm)
# In short: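 Substrate: L-α-dipalmitoylphosphatidylcholine/sodium cholate mixed micelles in 250 mM NaCl, 100 mM Tris-HCl pH 8.0. Enzyme (10 µg/ml stock) incubated with compound in buffer containing CaCl2 and BSA, 30 min at 37 °C. Released free fatty acid measured by ACS-ACOD at 540 nm; % inhibition derived from apparent enzyme concentration read off a standard curve.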
# [7] = tested on: experimental acute pancreatitis model; assay: Effects against acute pancreatitis (Test Example 7, closed duodenal loop method, gross pathological examination); format: in vivo, Crj-CD male rats; design: key to Pancreatic edema Distribution: -: No significant lesions; ± ∼ +++: Focal-diffuse; ± ∼ +++: Focal-diffuse; ± ∼ +++: Focal-diffuse; ± ∼ +++: Focal-diffuse; key to Pancreatic hemorrhage Petechia Grade / Pancreatic edema Grade: -: No significant lesions; ±: Minimal; +: Light; ++: Moderate; +++: Marked; details: 50 mg per kg continuous intravenous injection, examination 6 hours after ventrotomy, individual rats
# Protocol: as §1
# [8] = tested on: experimental acute pancreatitis model; assay: Effects against acute pancreatitis (Test Example 8, closed duodenal loop method, lesion scores); format: in vivo, Crj-CD male rats; details: sodium salt, 6 hours after ventrotomy; for inhibition in vivo at 10 mg/kg: Rattus norvegicus, 10 mg/kg single intravenous injection
# In short: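 Closed duodenal loop pancreatitis in male Crj-CD rats (n=3) under halothane/nitrous oxide; sodium-salt compounds given i.v. into tail vein by continuous infusion or bolus, controls untreated. At 6 h, four pancreatic lesions scored 0-3; inhibition % of total and hemorrhagic scores calculated versus control.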
# [9] = read-out: Inhibition rate of hemorrhagic lesions (%)
# [10] = read-out: Inhibition rate of pancreatitis lesions (%)
Compound,Inhibition rate (%) (carrageenin edema),Inhibition rate (%) ([2]; dose 50 mg/kg orally),LD50 at 168 h [3] [mg/kg],inhibition at 1000 ppm [6] [%],"inhibition in vivo at 10 mg/kg [8, 9] [%]","inhibition in vivo at 10 mg/kg [8, 10] [%]",further results
CCS(=O)(=O)Nc1ncc(C(F)(F)F)cc1NC(=O)c1ccco1 [compound 101],24,41,,,,,Inhibition rate (%) [1]: 46%
"CCS(=O)(=O)Nc1ncc(C(F)(F)F)cc1NC(=O)C(F)(F)C(F)(F)F [Compound No. 19, N-(2-ethylsulfonylamino-5-trifluoromethyl-3-pyridyl)pentafluoropropionamide]",,,50 to 100,75,,,"inhibition at 1000 ppm [4]: > 90%; inhibition in vivo at 100 mg/kg (carrageenin edema; po, 3 h, dose 100 mg/kg orally, read-out: Inhibition rate (%)): 31%; Pancreatic hemorrhage Petechia Distribution [5]: -; Pancreatic edema Distribution [7]: + (2×) and ††; Pancreatic edema Grade [7]: + (2×) and ††; Pancreatic hemorrhage Petechia Grade [7]: -"
CS(=O)(=O)Nc1ncc(C(F)(F)F)cc1NC(=O)c1cccs1 [compound 120],27,35,83,,,,Inhibition rate (%) [1]: 43%; Inhibition rate of hemorrhagic lesions (%) ([8]; 24 mg/kg continuous intravenous injection): 100%
CS(=O)(=O)Nc1ncc(C(F)(F)F)cc1NC(=O)C=Cc1cccs1 [compound 72],,,,73,62,32,"inhibition in vivo at 25 mg/kg (carrageenin edema; po, 3 h, dose 25 mg/kg orally, read-out: Inhibition rate (%)): 21%; Inhibition rate (%) ([2]; dose 25 mg/kg orally): 66%"
CS(=O)(=O)Nc1ncc(C(F)(F)F)cc1NC(=O)c1cccc(C(F)(F)F)c1 [compound 80],29,,> 80,73,11,8,Inhibition rate (%) ([2]; dose 25 mg/kg orally): 33%
CCS(=O)(=O)Nc1ncc(C(F)(F)F)cc1NC(=O)c1cccc(F)c1 [compound 98],45,32,,65,,,
CN(C)S(=O)(=O)Nc1ncc(C(F)(F)F)cc1NC(=O)c1cccc(F)c1 [compound 113],26,67,,35,41,36,

# — patent publication EP0465913B1, “Diaminotrifluoromethylpyrimidine derivatives, process for their production and phospholipase A2 inhibitor containing them” (ISHIHARA SANGYO KAISHA, LTD., priority 1990, dated 1992)
